# Values quoted from earlier work in paper PMC9851200, “Multiparameter phenotypic screening for endogenous TFEB and TFE3 translocation identifies novel chemical series modulating lysosome function” (Autophagy, 2022).
# Assays:
# Parameters in all cases: method as in original PKIS2 published data
# [1] = biological target: T1, kinases (KINOMEscan panel) (Homo sapiens, UniProt O76039); conditions: kinase CDKL5; Published KINOMEscan; ref original PKIS2 published data; cited from earlier work
# T1 sequence (O76039 1-960): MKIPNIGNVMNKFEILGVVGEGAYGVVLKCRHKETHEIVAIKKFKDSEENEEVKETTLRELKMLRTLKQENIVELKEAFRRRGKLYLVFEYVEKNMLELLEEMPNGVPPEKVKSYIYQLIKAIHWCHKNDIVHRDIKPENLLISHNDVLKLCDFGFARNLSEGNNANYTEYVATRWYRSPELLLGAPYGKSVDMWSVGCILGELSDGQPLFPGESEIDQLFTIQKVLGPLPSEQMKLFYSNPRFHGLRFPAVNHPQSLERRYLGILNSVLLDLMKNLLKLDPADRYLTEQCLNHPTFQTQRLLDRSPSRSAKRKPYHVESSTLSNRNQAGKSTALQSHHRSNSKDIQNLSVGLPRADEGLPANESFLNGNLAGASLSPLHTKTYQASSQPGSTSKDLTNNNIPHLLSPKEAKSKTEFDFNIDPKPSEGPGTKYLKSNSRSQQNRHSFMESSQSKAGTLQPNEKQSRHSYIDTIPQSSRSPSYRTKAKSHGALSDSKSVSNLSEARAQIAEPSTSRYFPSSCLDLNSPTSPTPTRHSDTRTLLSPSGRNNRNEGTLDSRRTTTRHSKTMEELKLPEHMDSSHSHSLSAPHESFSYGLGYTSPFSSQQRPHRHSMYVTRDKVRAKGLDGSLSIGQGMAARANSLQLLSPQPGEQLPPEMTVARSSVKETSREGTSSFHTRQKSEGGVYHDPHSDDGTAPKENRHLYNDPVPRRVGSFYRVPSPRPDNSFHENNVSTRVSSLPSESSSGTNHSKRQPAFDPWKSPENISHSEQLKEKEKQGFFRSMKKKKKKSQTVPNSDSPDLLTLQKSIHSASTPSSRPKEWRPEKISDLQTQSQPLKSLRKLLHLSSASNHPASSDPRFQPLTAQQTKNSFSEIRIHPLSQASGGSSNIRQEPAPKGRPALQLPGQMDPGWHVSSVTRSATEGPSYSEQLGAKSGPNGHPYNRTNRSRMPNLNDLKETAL
# [2] = biological target: T2, kinases (KINOMEscan panel) (Homo sapiens, UniProt Q08881); conditions: kinase ITK; Published KINOMEscan; ref original PKIS2 published data; cited from earlier work
# T2 sequence (Q08881 1-620): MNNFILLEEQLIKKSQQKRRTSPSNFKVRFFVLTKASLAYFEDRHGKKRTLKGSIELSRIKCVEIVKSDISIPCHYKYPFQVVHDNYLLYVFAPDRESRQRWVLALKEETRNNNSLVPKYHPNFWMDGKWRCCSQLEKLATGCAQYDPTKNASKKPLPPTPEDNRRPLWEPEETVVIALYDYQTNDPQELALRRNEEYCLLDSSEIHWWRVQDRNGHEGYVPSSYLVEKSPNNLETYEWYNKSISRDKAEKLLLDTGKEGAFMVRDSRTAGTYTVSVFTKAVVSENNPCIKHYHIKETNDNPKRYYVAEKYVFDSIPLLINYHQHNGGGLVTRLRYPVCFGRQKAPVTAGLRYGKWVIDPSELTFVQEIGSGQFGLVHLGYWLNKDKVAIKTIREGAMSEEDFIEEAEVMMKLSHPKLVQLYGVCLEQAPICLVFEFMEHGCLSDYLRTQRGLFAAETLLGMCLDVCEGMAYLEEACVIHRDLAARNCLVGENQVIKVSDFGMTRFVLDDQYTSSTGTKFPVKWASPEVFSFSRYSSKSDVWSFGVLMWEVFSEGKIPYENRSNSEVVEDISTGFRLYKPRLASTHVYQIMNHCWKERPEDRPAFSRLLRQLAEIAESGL
# [3] = biological target: kinases (KINOMEscan panel) (Homo sapiens, UniProt Q13555); conditions: CAMK2G; Published KINOMEscan; ref original PKIS2 published data; cited from earlier work
# [4] = biological target: T3, kinases (KINOMEscan panel) (Homo sapiens, UniProt Q96BR1); conditions: kinase SGK3; Published KINOMEscan; ref original PKIS2 published data; cited from earlier work
# T3 sequence (Q96BR1 1-496): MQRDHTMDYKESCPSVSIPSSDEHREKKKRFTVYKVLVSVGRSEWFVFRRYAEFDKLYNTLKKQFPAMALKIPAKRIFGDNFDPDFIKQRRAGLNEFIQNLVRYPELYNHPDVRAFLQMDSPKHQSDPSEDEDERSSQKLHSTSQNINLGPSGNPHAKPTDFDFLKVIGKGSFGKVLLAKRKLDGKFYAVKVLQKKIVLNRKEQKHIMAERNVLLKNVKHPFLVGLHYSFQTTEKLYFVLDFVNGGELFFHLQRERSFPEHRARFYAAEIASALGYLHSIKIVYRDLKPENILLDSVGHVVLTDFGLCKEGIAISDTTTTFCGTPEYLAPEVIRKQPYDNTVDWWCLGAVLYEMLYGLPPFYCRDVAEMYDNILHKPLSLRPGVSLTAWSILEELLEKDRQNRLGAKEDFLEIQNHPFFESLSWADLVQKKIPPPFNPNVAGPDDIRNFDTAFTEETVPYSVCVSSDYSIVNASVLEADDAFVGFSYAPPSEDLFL
# [5] = biological target: kinases (KINOMEscan panel) (Homo sapiens, UniProt Q9H1R3); conditions: MYLK2; Published KINOMEscan; ref original PKIS2 published data; cited from earlier work
# [6] = biological target: T4, kinases (KINOMEscan panel) (Homo sapiens, UniProt Q9HBY8); conditions: Published KINOMEscan; ref original PKIS2 published data; cited from earlier work
# T4 sequence (Q9HBY8 1-367): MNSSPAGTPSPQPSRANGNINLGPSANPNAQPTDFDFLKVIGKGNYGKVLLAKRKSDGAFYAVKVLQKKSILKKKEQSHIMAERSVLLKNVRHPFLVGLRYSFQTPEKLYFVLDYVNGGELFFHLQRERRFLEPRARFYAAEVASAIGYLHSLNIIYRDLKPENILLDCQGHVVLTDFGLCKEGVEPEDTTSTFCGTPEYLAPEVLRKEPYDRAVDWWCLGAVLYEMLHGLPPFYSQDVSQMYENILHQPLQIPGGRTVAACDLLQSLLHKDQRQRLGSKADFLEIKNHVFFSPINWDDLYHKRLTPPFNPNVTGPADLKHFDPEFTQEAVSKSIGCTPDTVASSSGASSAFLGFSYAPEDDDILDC
# Sequence of kinases (KINOMEscan panel) (Homo sapiens, UniProt Q9H1R3) (Q9H1R3 whole entry): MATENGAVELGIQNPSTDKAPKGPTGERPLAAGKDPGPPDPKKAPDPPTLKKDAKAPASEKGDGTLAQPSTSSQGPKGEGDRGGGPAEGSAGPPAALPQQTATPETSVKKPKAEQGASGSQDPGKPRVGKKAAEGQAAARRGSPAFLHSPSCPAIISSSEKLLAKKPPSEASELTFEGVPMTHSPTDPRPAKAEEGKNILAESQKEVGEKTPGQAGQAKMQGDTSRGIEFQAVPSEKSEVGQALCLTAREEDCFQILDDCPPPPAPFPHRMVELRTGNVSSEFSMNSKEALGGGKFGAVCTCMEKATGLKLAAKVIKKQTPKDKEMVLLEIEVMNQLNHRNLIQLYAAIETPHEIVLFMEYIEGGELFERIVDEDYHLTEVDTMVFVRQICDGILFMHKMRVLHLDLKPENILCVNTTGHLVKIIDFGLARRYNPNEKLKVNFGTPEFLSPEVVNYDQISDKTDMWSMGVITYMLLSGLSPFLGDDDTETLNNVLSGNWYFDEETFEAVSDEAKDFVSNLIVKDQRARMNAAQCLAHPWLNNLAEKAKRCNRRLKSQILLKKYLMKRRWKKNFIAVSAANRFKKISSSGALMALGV
# Sequence of kinases (KINOMEscan panel) (Homo sapiens, UniProt Q13555) (Q13555 whole entry): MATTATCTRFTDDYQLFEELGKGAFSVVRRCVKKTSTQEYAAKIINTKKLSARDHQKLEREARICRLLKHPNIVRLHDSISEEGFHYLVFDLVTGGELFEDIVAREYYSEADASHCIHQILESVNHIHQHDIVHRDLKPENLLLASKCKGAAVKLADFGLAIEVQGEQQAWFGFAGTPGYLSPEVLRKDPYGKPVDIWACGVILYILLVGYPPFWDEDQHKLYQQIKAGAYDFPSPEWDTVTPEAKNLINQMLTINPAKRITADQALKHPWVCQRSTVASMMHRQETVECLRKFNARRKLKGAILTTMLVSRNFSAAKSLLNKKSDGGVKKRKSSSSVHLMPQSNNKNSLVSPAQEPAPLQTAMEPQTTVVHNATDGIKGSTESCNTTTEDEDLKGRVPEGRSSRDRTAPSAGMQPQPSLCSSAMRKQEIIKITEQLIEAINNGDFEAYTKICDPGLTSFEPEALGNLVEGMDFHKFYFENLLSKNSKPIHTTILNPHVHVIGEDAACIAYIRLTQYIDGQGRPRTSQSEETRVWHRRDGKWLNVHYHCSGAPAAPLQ
compound,measurement,setting,value
Cc1cccc(-c2nc(Nc3ccncc3)c3ccccc3n2)n1 [NK215],KINOMEscan CDKL5,[1],0
same,KINOMEscan ITK,[2],24
same,KINOMEscan CAMK2G,[3],0
same,KINOMEscan SGK3,[4],0
same,KINOMEscan MYLK2,[5],7
same,KINOMEscan SGK2,[6],0
